The source of these data is patent publication US20260365655A1, “NEW USE OF JANUS KINASE (JAK)-DEGRADING AGENT BASED ON PROTEOLYSIS TARGETING CHIMERA (PROTAC)” (SHANGHAI SKIN DISEASE HOSPITAL, priority 2022, published 2026).

Where “and” joins values, the source holds several entries; their conditions need not be identical. Equal values may be shown once.

Data set [1] concerns mouse ear eczema model (spleen). As to the kind of experiment: Mouse ear eczema model: body weight, spleen weight and spleen index. In kind it is in vivo, BALB/c mice. The settings on record: for Ranking in terms of spleen weight and spleen index: AD model, positive drug, Compound 1 and Compound 2 groups; for Therapeutic effect for AD / Therapeutic effect versus the positive drug: atopic dermatitis mouse models; for Therapeutic effect versus the positive drug: positive drug = 0.050% dexamethasone acetate cream; for Spleen weights and spleen indexes versus blank control group: compared with the blank control group; for Spleen weight, mean value: group mean; for Spleen weight, mean value / Spleen weight: day 11, wet weight; for Spleen weight: individual mice.
Text: (§1) (1) Preparation method of a JAK-PROTAC cream: the same as in Example 1.
(§2) (2) Positive therapeutic drug: a 0.050% dexamethasone acetate cream (manufacturer: Shanghai Skin Disease Hospital).
(§3) (3) Blank matrix: a matrix component produced after the active ingredient JAK-PROTAC was removed from the cream.
(§4) (4) Molding agent: solution of calcipotriol in ethanol (manufacturer: MACKLIN).
(§5) (1) The mice were randomly divided into a blank control group (6 mice) (Control), a model group (6 mice) (Model), a positive drug group (6 mice) (Positive), a Compound 1-treating group (0.15% JAK-PROTAC cream 1 for external use) (6 mice) (Treat 1), and a Compound 2-treating group (0.15% JAK-PROTAC cream 2 for external use) (6 mice) (Treat 2).
(§6) (2) Molding was conducted in the following manner:
(§7) A. On day 0 to day 7 of the modeling: At 9 a.m., the blank control group was administered with the cream matrix, the model group was administered with the molding agent, the positive group was administered with the molding agent, the Compound 1-treating group was administered with the molding agent, and the Compound 2-treating group was administered with the molding agent. At 5 p.m., the blank control group was not treated, the model group was administered with the cream matrix, the positive group was administered with the dexamethasone acetate cream, the Compound 1-treating group was administered with the JAK-PROTAC cream 1, and the Compound 2-treating group was administered with the JAK-PROTAC cream 2.
as §7, with “B.” for “A.”, “8” for “0”, “10” for “7”, “modeling, at” for “modeling: At”, “not treated,” for “administered with the molding agent,”, “not treated.” for “administered with the molding agent.”
(§8) C. On day 11 of the modeling: At 9 a.m., the blank control group was administered with the cream matrix, the model group was not treated, the positive group was not treated, the Compound 1-treating group was not treated, and the Compound 2-treating group was not treated. At 1 p.m., the mice were sacrificed through cervical dislocation, and the spleen and two ears of each mouse were collected.
(3) Spleen index testing:
After the mice were sacrificed, a spleen tissue was collected, dried with a filter paper to remove blood stains on a surface, and weighed for a wet weight. A spleen index was calculated as follows: spleen index=10,000×spleen weight (g)/body weight (g).
(2) A body weight and thicknesses of two ears of each mouse were recorded daily.
(3) After the experiment was completed, a spleen index of each mouse was calculated.
(§9) The data of the present disclosure was processed with the Excel and GraphPad software. The experimental data was tested by one-way ANOVA. The post-hoc multiple comparison was conducted with the least significant difference (LSD). P<0.05 indicated a significant difference.

In data set [2] the test system is serum thymic stromal lymphopoietin (TSLP). As to the kind of experiment: Mouse ear eczema model: serum TSLP by enzyme-linked immunosorbent assay. In kind it is in vivo, BALB/c mice. The settings on record: for Serum TSLP content versus blank group: compared with the blank group; for Serum TSLP content versus model group: compared with the model group; for Reduction level of serum TSLP content versus positive group: compared with the positive group (dexamethasone acetate cream).
Text: as §1, §2, §3, §4, §5, §6, §7
as §7, with “B.” for “A.”, “8” for “0”, “10” for “7”, “modeling, at” for “modeling: At”, “not treated,” for “administered with the molding agent,”, “not treated.” for “administered with the molding agent.”
as §8
(4) The TSLP content in serum was detected by enzyme-linked immunosorbent assay.
as §9

Data set [3] is described as follows: HaCaT cell viability by CCK-8 assay. The format is cell-based. The settings on record: human, hacat cells. As for the experimental part: (1) Reagents: compound 1: a compound shown by Compound 1 in Formula (I); compound 2: a compound shown by Compound 2 in Formula (I); Dulbecco's Modified Eagle Medium (DMEM) high-glucose medium: Wuhan Pricella Biotechnology Co., Ltd.; South American fetal bovine serum (FBS) and trypsin: Gibco, USA; penicillin-streptomycin: Hyclone, USA; and CCK-8 kit: Beyotime.
(2) Instruments: CO2 incubator: HERA cell 240; and microplate reader: Thermo Fisher Scientific, USA.
The cultured HaCaT cells were counted under a microscope to be about 2×10^6 cells/mL, then inoculated in a 96-well plate at about 6×10^3 cells/well, and incubated overnight in a 37 °C and 5% CO2 incubator. After cells were adherent, a medium was removed, and 200 μL of each of complete media including compounds 1 and 2 at different concentrations (0.05 μg/mL, 0.1 μg/mL, 0.2 μg/mL, 0.5 μg/mL, 1 μg/mL, 2 μg/mL, 5 μg/mL, 10 μg/mL, and 20 μg/mL) was added to a corresponding well. The 0 μg/mL group was set as a blank control group. Three replicate wells were set for each treatment of the compounds 1 and 2. The plate was incubated in a CO2 incubator for 24 h. 20 μL of CCK-8 reagent was added to each well, and the plate was incubated in a CO2 incubator for 1 h and then placed in the microplate reader to read the absorbance at 450 nm. The test was repeated 3 times, and a mean value was taken. The measured absorbance was substituted into a cell viability calculation formula to calculate the cell viability.
The data of the present disclosure was processed with the Excel and Graphpad software. The experimental data was tested by one-way ANOVA. The post-hoc multiple comparison was conducted with the LSD. P<0.05 indicated a significant difference.
A general note: Tetrazolium assays rely on reduction of a dye to a coloured formazan, in cell work by metabolically active cells.

For the compound `N#CC[C@H](C1CCCC1)n1cc(-c2nc(Nc3ccc(C(=O)NCCCCNc4cccc5c4C(=O)N(C4CCC(=O)NC4=O)C5=O)cc3)nc3[nH]ccc23)cn1` (stereo partly drawn) [Compound 1], in data set [1], the “Ranking in terms of spleen weight and spleen index” value was “the Compound 1-treating group>the Compound 2-treating group>the positive drug group>the AD model group (P<0.05)”. In addition, the “Therapeutic effect for AD” value in data set [1] is listed as “had a therapeutic effect for AD, could improve the inflammatory responses in atopic dermatitis mouse models”. In addition, in data set [1], the “Therapeutic effect versus the positive drug” value is recorded as “exhibited a better therapeutic effect than the positive drug”. In data set [1], the “Spleen weights and spleen indexes versus blank control group” value was “significantly reduced (P<0.05)”. The “Spleen weight, mean value” in data set [1] amounted to 0.0862 g. For the same compound, in data set [1], the Spleen weight is 0.0798 g and 0.0934 g and 0.0855 g. The “Serum TSLP content versus blank group” value in data set [2] is recorded as “increased compared with the blank group (P<0.01)”. The “Serum TSLP content versus model group” value in data set [2] is “significantly reduced compared with the model group (P<0.01)”. For the same compound, the “Reduction level of serum TSLP content versus positive group” value in data set [2] was “greater than a reduction level of a TSLP content in the positive group (P<0.01)”. Further, the viability – broadly, a read-out of living cells in per cent, often relative to untreated cells – at 24 h in data set [3] (0.05 μg/mL) was determined as 80.5%; in data set [3] (0.10 μg/mL) it was 85.7%; in data set [3] (0.20 μg/mL), 90.7%; in data set [3] (0.50 μg/mL), 98.3%; in data set [3] (1.00 μg/mL), 98.3%; in data set [3] (2.00 μg/mL), 93.8%. Further, the viability at 24 h was found to be 108% in data set [3] (5.00 μg/mL), 110% in data set [3] (10.00 μg/mL) and 80.3% in data set [3] (20.00 μg/mL).
Turning to `CCS(=O)(=O)N1CC(CC#N)(n2cc(-c3nc(Nc4ccc(C(=O)NCCCCNc5cccc6c5C(=O)N(C5CCC(=O)NC5=O)C6=O)cc4)nc4[nH]ccc34)cn2)C1` (stereo not drawn) [Compound 2], the “Ranking in terms of spleen weight and spleen index” value in data set [1] is listed as “the Compound 1-treating group>the Compound 2-treating group>the positive drug group>the AD model group (P<0.05)”. Further, in data set [1], the “Therapeutic effect for AD” value was “had a therapeutic effect for AD, could improve the inflammatory responses in atopic dermatitis mouse models”. The “Therapeutic effect versus the positive drug” value in data set [1] is reported as “exhibited a better therapeutic effect than the positive drug”. Moreover, the “Spleen weights and spleen indexes versus blank control group” value in data set [1] was “significantly reduced (P<0.05)”. Also, in data set [1], the “Spleen weight, mean value” was 0.0732 g. Moreover, in data set [1], the Spleen weight was 0.0749 g and 0.0739 g and 0.0708 g. The “Serum TSLP content versus blank group” value in data set [2] was “increased compared with the blank group (P<0.01)”. Also, the “Serum TSLP content versus model group” value in data set [2] is recorded as “significantly reduced compared with the model group (P<0.01)”. In addition, the “Reduction level of serum TSLP content versus positive group” value in data set [2] is given as “greater than a reduction level of a TSLP content in the positive group (P<0.01)”. In addition, the viability at 24 h in data set [3] (0.05 μg/mL) amounted to 95.5%; in data set [3] (0.10 μg/mL), 95.6%; in data set [3] (0.20 μg/mL), 106%; in data set [3] (0.50 μg/mL) it was 113%; in data set [3] (1.00 μg/mL) it was 101%; in data set [3] (2.00 μg/mL), 107%. Moreover, the viability at 24 h in data set [3] (5.00 μg/mL) came out at 124%; in data set [3] (10.00 μg/mL) it was 120%; in data set [3] (20.00 μg/mL), 93.3%.
